# Data from publication PMC7265341, “Quantifying CDK inhibitor selectivity in live cells” (Nature Communications, 2020).
# Like-named read-outs stand apart in the source and are kept apart here.
# Tests used:
# [1] = target: CDK15/Cyclin Y (Homo sapiens, UniProt Q96Q40); assay: NanoBRET live-cell target engagement, NanoLuc-CDK15/Cyclin Y in HEK-293; format: binding
# [2] = target: CDK16/Cyclin Y (Homo sapiens, UniProt Q00536); assay: NanoBRET live-cell target engagement, CDK16-NanoLuc/Cyclin Y in HEK-293; format: binding; conditions: CDK16/Y, read-out: Inhibition at 10µM (%)
# [3] = target: CDK14/Cyclin Y (Homo sapiens, UniProt O94921); assay: NanoBRET live-cell target engagement, CDK14-NanoLuc/Cyclin Y in HEK-293; format: binding; conditions: CDK14/Y, read-out: Inhibition at 10µM (%)
# [4] = target: CDK20/Cyclin H (Homo sapiens, UniProt Q8IZL9); assay: NanoBRET live-cell target engagement, NanoLuc-CDK20/Cyclin H in HEK-293; format: binding
# [5] = target: CDK17/Cyclin Y (Homo sapiens, UniProt Q00537); assay: NanoBRET live-cell target engagement, CDK17-NanoLuc/Cyclin Y in HEK-293; format: binding
# Chain of CDK17/Cyclin Y (Q00537 whole entry): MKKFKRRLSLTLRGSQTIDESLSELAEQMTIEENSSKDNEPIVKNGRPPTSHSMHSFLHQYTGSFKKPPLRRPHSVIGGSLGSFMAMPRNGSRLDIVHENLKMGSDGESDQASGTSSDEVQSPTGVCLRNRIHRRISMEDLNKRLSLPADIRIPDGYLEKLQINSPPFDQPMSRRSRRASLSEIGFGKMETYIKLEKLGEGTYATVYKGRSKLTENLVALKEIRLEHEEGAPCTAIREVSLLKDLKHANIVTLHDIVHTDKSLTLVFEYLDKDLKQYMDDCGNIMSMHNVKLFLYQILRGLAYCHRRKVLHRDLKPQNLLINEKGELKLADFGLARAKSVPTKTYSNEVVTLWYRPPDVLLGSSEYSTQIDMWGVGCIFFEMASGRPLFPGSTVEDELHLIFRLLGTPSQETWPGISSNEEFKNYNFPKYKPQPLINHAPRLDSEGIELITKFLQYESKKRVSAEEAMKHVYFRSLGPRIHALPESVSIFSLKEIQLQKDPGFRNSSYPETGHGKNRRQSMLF
# Chain of CDK17/Cyclin Y (Q8ND76 whole entry partner): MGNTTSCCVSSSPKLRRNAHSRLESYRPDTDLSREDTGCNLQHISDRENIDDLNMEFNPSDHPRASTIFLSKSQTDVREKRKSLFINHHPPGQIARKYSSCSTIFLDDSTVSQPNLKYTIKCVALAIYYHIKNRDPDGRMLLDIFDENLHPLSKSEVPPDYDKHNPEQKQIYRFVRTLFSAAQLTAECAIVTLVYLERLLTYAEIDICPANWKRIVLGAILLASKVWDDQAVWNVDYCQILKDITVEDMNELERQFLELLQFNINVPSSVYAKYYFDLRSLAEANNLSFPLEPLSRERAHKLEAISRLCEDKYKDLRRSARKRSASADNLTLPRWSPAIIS
# [6] = target: CDK11B/Cyclin L2 (Homo sapiens, UniProt P21127); assay: NanoBRET live-cell target engagement, CDK11B-NanoLuc/Cyclin L2 in HEK-293; format: binding; conditions: CDK11b/L2, read-out: Inhibition at 10µM (%)
# [7] = target: CDK4/Cyclin D1 (Homo sapiens, UniProt P11802); assay: NanoBRET live-cell target engagement, NanoLuc-CDK4/Cyclin D1 in HEK-293; format: binding; conditions: CDK4/D1, read-out: Inhibition at 10µM (%)
# Chain of CDK4/Cyclin D1 (P11802 whole entry): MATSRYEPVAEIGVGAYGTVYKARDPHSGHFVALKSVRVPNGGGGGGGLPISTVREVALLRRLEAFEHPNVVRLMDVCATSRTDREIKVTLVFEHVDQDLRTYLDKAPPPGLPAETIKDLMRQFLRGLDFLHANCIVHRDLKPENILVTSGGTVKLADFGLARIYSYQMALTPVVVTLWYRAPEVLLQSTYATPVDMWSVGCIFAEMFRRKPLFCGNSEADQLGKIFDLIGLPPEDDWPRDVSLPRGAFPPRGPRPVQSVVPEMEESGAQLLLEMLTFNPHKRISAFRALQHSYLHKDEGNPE
# Chain of CDK4/Cyclin D1 (P24385 whole entry partner): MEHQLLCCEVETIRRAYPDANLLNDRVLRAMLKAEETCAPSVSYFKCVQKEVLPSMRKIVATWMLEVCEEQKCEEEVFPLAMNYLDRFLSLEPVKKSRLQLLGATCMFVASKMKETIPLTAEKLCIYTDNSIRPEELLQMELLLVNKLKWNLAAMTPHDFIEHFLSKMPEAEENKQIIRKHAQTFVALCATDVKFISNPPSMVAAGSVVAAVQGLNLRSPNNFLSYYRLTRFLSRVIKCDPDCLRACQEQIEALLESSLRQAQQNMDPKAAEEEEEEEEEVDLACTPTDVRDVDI
# [8] = target: T1, CDK11A/Cyclin L2 (Homo sapiens, UniProt Q9UQ88); assay: NanoBRET live-cell target engagement, CDK11A-NanoLuc/Cyclin L2 in HEK-293; format: binding; conditions: CDK11a/L2, read-out: Inhibition at 10µM (%)
# T1 sequence (Q9UQ88 1-783): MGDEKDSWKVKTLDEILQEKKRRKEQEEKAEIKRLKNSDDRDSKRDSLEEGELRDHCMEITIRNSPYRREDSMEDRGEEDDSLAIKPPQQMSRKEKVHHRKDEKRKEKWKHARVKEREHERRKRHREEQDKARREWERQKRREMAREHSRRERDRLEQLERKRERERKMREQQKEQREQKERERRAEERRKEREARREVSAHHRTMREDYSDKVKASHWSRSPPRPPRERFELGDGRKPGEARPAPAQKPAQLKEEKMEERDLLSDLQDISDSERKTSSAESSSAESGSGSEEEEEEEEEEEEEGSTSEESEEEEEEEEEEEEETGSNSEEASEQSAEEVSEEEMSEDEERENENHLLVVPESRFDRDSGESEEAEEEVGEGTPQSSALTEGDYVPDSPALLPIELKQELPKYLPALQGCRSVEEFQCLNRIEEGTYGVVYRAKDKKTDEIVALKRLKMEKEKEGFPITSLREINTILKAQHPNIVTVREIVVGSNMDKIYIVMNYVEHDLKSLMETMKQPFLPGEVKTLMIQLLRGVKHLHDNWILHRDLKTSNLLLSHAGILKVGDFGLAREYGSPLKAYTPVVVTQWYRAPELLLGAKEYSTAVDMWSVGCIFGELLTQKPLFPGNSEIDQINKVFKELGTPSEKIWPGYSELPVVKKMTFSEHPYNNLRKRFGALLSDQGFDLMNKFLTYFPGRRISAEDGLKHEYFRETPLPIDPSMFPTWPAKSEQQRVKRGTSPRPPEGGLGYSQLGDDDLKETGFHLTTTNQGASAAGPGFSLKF
# [9] = test system: all 21 human CDKs; assay: Live-cell selectivity profile across all 21 CDK/cyclin complexes in HEK-293; format: binding
# [10] = target: CDK8/Cyclin C (Homo sapiens, UniProt P49336); assay: NanoBRET live-cell target engagement, NanoLuc-CDK8/Cyclin C in HEK-293; format: binding; conditions: CDK8/C, read-out: Inhibition at 10µM (%)
# [11] = target: CDK18/Cyclin Y (Homo sapiens, UniProt Q07002); assay: NanoBRET live-cell target engagement, CDK18-NanoLuc/Cyclin Y in HEK-293; format: binding; conditions: CDK18/Y, read-out: Inhibition at 10µM (%)
# [12] = target: CDK13/Cyclin K (Homo sapiens, UniProt Q14004); assay: NanoBRET live-cell target engagement, CDK13-NanoLuc/Cyclin K in HEK-293; format: binding; conditions: CDK13/K, read-out: Inhibition at 10µM (%)
# [13] = target: CDK12/Cyclin K (Homo sapiens, UniProt Q9NYV4); assay: NanoBRET live-cell target engagement, CDK12-NanoLuc/Cyclin K in HEK-293; format: binding; conditions: CDK12/K, read-out: Inhibition at 10µM (%)
# Chain of CDK12/Cyclin K (Q9NYV4 1-1481 isoform Q9NYV4-2): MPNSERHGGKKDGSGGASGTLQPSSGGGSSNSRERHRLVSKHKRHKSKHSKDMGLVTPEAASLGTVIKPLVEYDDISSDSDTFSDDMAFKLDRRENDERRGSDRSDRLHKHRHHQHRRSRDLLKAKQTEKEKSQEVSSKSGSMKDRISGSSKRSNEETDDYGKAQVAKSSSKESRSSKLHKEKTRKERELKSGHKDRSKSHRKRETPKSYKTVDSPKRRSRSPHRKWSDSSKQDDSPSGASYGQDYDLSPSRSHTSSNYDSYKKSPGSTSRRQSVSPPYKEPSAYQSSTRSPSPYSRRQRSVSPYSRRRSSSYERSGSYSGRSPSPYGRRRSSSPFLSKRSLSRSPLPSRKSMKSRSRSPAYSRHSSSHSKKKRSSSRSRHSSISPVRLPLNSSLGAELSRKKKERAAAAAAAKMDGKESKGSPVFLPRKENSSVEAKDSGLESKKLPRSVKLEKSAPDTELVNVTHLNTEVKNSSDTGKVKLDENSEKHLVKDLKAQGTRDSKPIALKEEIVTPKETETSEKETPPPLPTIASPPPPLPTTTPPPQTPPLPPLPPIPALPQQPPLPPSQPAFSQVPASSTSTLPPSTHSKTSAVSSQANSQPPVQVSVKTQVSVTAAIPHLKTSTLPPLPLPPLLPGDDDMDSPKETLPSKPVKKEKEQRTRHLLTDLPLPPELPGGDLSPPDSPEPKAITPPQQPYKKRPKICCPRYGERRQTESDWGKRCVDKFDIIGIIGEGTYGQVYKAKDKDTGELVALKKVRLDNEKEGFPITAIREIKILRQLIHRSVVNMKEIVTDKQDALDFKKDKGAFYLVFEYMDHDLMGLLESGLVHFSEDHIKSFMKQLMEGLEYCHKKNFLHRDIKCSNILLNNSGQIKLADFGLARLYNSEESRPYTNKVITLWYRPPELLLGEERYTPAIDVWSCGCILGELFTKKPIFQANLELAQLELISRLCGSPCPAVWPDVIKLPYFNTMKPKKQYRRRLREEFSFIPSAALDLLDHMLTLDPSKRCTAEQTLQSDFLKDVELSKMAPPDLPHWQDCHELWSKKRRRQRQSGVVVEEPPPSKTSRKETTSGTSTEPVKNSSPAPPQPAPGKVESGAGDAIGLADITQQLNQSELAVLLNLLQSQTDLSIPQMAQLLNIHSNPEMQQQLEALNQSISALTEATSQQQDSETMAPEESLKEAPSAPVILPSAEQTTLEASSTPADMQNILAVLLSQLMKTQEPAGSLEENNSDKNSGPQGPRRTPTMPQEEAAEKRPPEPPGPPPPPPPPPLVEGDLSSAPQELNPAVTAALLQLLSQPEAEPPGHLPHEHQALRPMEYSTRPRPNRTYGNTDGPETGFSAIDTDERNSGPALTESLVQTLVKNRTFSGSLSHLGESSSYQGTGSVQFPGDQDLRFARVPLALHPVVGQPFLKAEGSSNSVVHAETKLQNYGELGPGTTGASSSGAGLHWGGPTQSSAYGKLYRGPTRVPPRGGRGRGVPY
# Chain of CDK12/Cyclin K (O75909 whole entry partner): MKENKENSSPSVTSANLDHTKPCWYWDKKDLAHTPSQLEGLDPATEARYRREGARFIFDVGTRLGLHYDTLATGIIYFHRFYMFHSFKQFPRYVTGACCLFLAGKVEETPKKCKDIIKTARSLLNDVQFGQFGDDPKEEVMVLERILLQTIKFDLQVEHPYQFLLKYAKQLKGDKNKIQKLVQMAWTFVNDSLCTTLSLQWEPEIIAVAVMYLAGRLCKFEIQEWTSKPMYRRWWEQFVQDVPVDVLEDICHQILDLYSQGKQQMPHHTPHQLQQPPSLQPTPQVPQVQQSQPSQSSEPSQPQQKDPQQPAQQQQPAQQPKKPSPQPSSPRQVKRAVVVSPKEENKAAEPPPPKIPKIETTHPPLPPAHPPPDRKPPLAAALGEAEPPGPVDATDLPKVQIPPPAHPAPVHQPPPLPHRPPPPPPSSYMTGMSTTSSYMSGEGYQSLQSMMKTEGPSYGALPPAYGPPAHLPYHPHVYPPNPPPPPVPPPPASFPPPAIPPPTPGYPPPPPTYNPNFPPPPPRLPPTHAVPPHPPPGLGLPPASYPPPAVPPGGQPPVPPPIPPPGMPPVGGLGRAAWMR
# [14] = target: CDK5/CDK5R1 (Homo sapiens, UniProt Q00535); assay: NanoBRET live-cell target engagement, CDK5-NanoLuc/CDK5R1 in HEK-293; format: binding; conditions: CDK5/CDK5R1, read-out: Inhibition at 10µM (%)
# Chain of CDK5/CDK5R1 (Q00535 whole entry): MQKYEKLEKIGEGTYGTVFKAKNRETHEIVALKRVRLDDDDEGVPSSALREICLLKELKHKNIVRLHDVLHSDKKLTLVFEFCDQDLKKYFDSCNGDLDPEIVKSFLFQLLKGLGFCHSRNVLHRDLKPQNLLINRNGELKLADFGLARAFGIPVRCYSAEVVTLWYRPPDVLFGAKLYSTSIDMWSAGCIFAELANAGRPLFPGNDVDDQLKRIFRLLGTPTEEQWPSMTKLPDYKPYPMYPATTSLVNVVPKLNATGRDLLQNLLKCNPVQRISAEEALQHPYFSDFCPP
# Chain of CDK5/CDK5R1 (Q15078 whole entry partner): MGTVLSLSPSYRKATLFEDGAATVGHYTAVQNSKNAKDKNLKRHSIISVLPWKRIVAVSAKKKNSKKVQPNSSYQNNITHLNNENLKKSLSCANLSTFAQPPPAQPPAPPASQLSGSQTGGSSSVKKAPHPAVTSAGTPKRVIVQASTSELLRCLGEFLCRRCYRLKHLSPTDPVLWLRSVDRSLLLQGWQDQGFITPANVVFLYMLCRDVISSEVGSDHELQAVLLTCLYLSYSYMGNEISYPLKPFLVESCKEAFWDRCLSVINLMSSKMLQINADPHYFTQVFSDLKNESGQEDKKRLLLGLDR
# [15] = target: CDK19/Cyclin C (Homo sapiens, UniProt Q9BWU1); assay: NanoBRET live-cell target engagement, NanoLuc-CDK19/Cyclin C in HEK-293; conditions: read-out: Inhibition at 10µM (%), CDK19/C
# [16] = target: CDK10/Cyclin L2 (Homo sapiens, UniProt Q15131); assay: NanoBRET live-cell target engagement, CDK10-NanoLuc/Cyclin L2 in HEK-293; conditions: read-out: Inhibition at 10µM (%), CDK10/L2
# Chain of CDK10/Cyclin L2 (Q15131 whole entry): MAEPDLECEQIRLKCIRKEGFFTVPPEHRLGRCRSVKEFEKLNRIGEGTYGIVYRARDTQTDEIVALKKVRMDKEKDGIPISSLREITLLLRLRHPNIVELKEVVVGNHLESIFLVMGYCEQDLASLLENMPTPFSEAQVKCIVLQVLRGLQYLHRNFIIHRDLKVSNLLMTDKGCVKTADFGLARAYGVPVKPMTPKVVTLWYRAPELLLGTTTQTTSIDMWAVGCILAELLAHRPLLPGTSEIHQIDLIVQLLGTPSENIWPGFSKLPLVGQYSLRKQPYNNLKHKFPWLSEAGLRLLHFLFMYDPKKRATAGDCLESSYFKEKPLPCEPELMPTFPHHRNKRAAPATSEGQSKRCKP
# [17] = target: CDK6/Cyclin D1 (Homo sapiens, UniProt Q00534); assay: NanoBRET live-cell target engagement, NanoLuc-CDK6/Cyclin D1 in HEK-293; format: binding; conditions: read-out: Inhibition at 10µM (%), CDK6/D1
# [18] = CDK15/Y, average, read-out: Inhibition at 10µM (%)
# [19] = CDK15/Y, experiment 2, read-out: Inhibition at 10µM (%)
# [20] = CDK17/Y, average, read-out: Inhibition at 10µM (%)
# [21] = CDK17/Y, experiment 2, read-out: Inhibition at 10µM (%)
# Chain of CDK15/Cyclin Y (Q96Q40 whole entry): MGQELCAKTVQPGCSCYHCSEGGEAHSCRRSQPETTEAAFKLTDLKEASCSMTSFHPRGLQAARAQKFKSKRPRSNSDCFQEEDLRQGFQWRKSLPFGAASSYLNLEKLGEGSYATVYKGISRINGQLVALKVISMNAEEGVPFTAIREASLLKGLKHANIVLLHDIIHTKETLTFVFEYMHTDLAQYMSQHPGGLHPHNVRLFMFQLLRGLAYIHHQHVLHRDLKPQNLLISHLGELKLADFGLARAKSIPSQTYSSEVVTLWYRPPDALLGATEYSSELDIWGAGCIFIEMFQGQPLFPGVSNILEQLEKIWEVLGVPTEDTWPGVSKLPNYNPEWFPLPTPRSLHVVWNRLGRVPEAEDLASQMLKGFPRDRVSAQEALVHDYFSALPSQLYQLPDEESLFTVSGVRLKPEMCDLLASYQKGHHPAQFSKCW
# Chain of CDK15/Cyclin Y (Q8ND76 whole entry partner): as the sequence (Q8ND76 whole entry partner) above
compound,measurement,setting,value
CC(C)(C)c1nc(-c2cccc(NS(=O)(=O)c3c(F)cccc3F)c2F)c(-c2ccnc(N)n2)s1 [Dabrafenib],inhibition at 10 µM,[1]; [18],14.6%
same,inhibition at 10 µM,"[1]; CDK15/Y, experiment 1, read-out: Inhibition at 10µM (%)",4.4%
same,inhibition at 10 µM,[1]; [19],24.7%
same,inhibition at 10 µM,[2]; experiment 1,1.4%
same,inhibition at 10 µM,[2]; experiment 2,-3.4%
same,inhibition at 10 µM,[3]; average,0.0911%
same,inhibition at 10 µM,[3]; experiment 1,0.459%
same,inhibition at 10 µM,[3]; experiment 2,-0.277%
same,inhibition at 10 µM,"[4]; CDK20/H, experiment 1, read-out: Inhibition at 10µM (%)",13.5%
same,inhibition at 10 µM,"[4]; CDK20/H, experiment 2, read-out: Inhibition at 10µM (%)",6.7%
same,inhibition at 10 µM,[5]; [20],10.2%
same,inhibition at 10 µM,[5]; [21],4%
same,inhibition at 10 µM,"[5]; read-out: Inhibition at 10µM (%), CDK17/Y, experiment 1",16.4%
same,inhibition at 10 µM,[6]; average,4.4%
same,inhibition at 10 µM,[6]; experiment 1,2.7%
same,inhibition at 10 µM,[6]; experiment 2,6%
same,inhibition at 10 µM,[7]; average,21.4%
same,inhibition at 10 µM,[7]; experiment 1,5.4%
same,inhibition at 10 µM,[7]; experiment 2,37.4%
same,inhibition at 10 µM,[8]; average,9.5%
same,inhibition at 10 µM,[8]; experiment 1,2.1%
same,inhibition at 10 µM,[8]; experiment 2,16.8%
same,engagement of CDKs at concentrations up to 10μM,[9]; live cells,only weakly engaged
same,inhibition at 10 µM,[10]; average,-1.9%
same,inhibition at 10 µM,[10]; experiment 1,-1.4%
same,inhibition at 10 µM,[10]; experiment 2,-2.4%
same,inhibition at 10 µM,[11]; average,8.1%
same,inhibition at 10 µM,[11]; experiment 1,1.7%
same,inhibition at 10 µM,[11]; experiment 2,14.5%
same,inhibition at 10 µM,[12]; average,10.9%
same,inhibition at 10 µM,[12]; experiment 1,7.1%
same,inhibition at 10 µM,[12]; experiment 2,14.7%
same,inhibition at 10 µM,[13]; average,20.2%
same,inhibition at 10 µM,[13]; experiment 1,5.9%
same,inhibition at 10 µM,[13]; experiment 2,34.6%
same,inhibition at 10 µM,[14]; average,-2.2%
same,inhibition at 10 µM,[14]; experiment 1,-4.1%
same,inhibition at 10 µM,[14]; experiment 2,-0.278%
same,inhibition at 10 µM,[15]; average,-6.6%
same,inhibition at 10 µM,[15]; experiment 1,0.8%
same,inhibition at 10 µM,[15]; experiment 2,-14%
same,inhibition at 10 µM,[16]; average,12.7%
same,inhibition at 10 µM,[16]; experiment 1,3%
same,inhibition at 10 µM,[16]; experiment 2,22.4%
NS(=O)(=O)c1ccc(Nc2nc(OCC3CCCCC3)c3nc[nH]c3n2)cc1 [NU6102],inhibition at 10 µM,[1]; [18],28.3%
same,inhibition at 10 µM,[1]; [19],10.5%
same,inhibition at 10 µM,"[1]; read-out: Inhibition at 10µM (%), CDK15/Y, experiment 1",46.2%
same,inhibition at 10 µM,[2]; experiment 1,66.5%
same,inhibition at 10 µM,[2]; experiment 2,85.2%
same,inhibition at 10 µM,[3]; average,13.8%
same,inhibition at 10 µM,[3]; experiment 1,9.9%
same,inhibition at 10 µM,[3]; experiment 2,17.7%
same,inhibition at 10 µM,"[4]; read-out: Inhibition at 10µM (%), CDK20/H, experiment 1",59%
same,inhibition at 10 µM,"[4]; read-out: Inhibition at 10µM (%), CDK20/H, experiment 2",76.6%
same,inhibition at 10 µM,[5]; [20],44.7%
same,inhibition at 10 µM,"[5]; CDK17/Y, experiment 1, read-out: Inhibition at 10µM (%)",40.2%
same,inhibition at 10 µM,[5]; [21],49.2%
same,inhibition at 10 µM,[6]; average,27.3%
same,inhibition at 10 µM,[6]; experiment 1,13.2%
same,inhibition at 10 µM,[6]; experiment 2,41.4%
same,inhibition at 10 µM,[17]; average,82.2%
same,inhibition at 10 µM,[17]; experiment 1,70.6%
same,inhibition at 10 µM,[17]; experiment 2,93.7%
same,inhibition at 10 µM,[8]; average,14%
same,inhibition at 10 µM,[8]; experiment 1,10.4%
same,inhibition at 10 µM,[8]; experiment 2,17.6%
same,IC50,"[9]; remaining CDK family, live HEK-293, read-out: Collateral CDK (potency)",> 1 µM
same,inhibition at 10 µM,[10]; average,11.3%
same,inhibition at 10 µM,[10]; experiment 1,17.2%
same,inhibition at 10 µM,[10]; experiment 2,5.4%
same,inhibition at 10 µM,[11]; average,30.2%
same,inhibition at 10 µM,[11]; experiment 1,20.4%
same,inhibition at 10 µM,[11]; experiment 2,40.1%
same,inhibition at 10 µM,[12]; average,18.1%
same,inhibition at 10 µM,[12]; experiment 1,10.3%
same,inhibition at 10 µM,[12]; experiment 2,25.9%
same,inhibition at 10 µM,[13]; average,3.2%
same,inhibition at 10 µM,[13]; experiment 1,8.2%
same,inhibition at 10 µM,[13]; experiment 2,-1.8%
same,inhibition at 10 µM,[15]; average,13%
same,inhibition at 10 µM,[15]; experiment 1,21%
same,inhibition at 10 µM,[15]; experiment 2,4.9%
same,inhibition at 10 µM,[16]; average,64%
same,inhibition at 10 µM,[16]; experiment 1,47.6%
same,inhibition at 10 µM,[16]; experiment 2,80.4%
